Measured values published in PubChem BioAssay AID1918934 (Molecular Pharmacology Branch, DTP, NCI, 2023).

Tested on: 292921-168-R-J2-PDC complex spheroid viability
Experiment: Anticancer human tumor 292921-168-R-J2-PDC patient-derived pancreatic carcinoma cell line growth inhibition
Settings: for IC50: curve of first compound; for viability, T/C: stronger effect = lower value
Excerpt: Multicellular complex tumor spheroid response to LSD1 Inhibitor Iadademstat in combination with a variety of drugs and investigational agents in selected tumor cell lines
The current study was undertaken to assess response to LSD1 inhibitors in combination with standard-of-care drugs and investigational agents in solid tumor complex spheroid models as well as in the K-562 leukemia. Complex spheroids include a stromal component modeled by human endothelial cells (HUVEC) and fibroblasts modeled by human mesenchymal stem cells (MSCs). The concentration ranges selected for each drug and investigational agent were based upon clinically achievable concentrations if the clinical Cmax of the agent was known.
Compounds. The drugs and investigational agents used in this study are listed on Table 1. All of the agents used, including staurosporine (NSC755774) and gemcitabine (NSC613327), were obtained from the Developmental Therapeutics Program, NCI. FDA-approved anticancer drugs are available from the NCI at http://dtp.nci.nih.gov/branches/dscb/oncology_drugset_explanation.html. Drugs and investigational agents were >95% pure by proton nuclear magnetic resonance (NMR) and liquid chromatography/mass spectrometry (LC/MS). Stock solutions were prepared at 400x in DMSO, stored at -70 degrees C, and diluted in fresh medium prior to their use. The final concentration of DMSO in cell culture wells never exceeded 0.25% (v/v). The FDA-approved anticancer drug set is available from the Developmental Therapeutics Program at https://dtp.cancer.gov/organization/dscb/obtaining/available_plates.htm. All drugs and investigational agents were tested over a range starting from a high concentration at or near the clinical Cmax and decreasing in half-log increments. If the clinical Cmax for an agent had not been determined, the highest concentration tested was 10 microM.
Cell Lines. The patient-derived cancer cell (PDC) lines: 292921-168-R-J2-PDC, K24384-001-R-PDC, and 521955-158-R2-J5-PDC pancreatic carcinomas, 556581-035-R-J1 ovarian carcinoma, 324938-238-R-J1-PDC, 855422-203-R-J1-PDC and 883617-216-R-J1-PDC urothelial bladder carcinomas, 743489-274-T-PDC renal cell carcinoma, 138582-R-J1 Merkel cell tumor, K60290-347-R-J1 and K57222-313-R-J1-PDC glioblastomas, 653999-131-R-J2-PDC, LG0703-F948-PDC, and 349418-098-R-PDC non-small cell lung carcinomas, 885512-296-R-J2-PDC, 171881-019-R-J1-PDC breast carcinomas and 186277-243-T-J2-PDC and 233499-124-R-J2-PDC colon carcinomas were obtained from the NCI Patient-Derived Models Repository (PDMR, https://pdmr.cancer.gov). The established cell lines NCI/ADR-RES (RRID:CVCL_14520 and OVCAR-5 (RRID:CVCL_1628) ovarian carcinomas, 786-O (RRID:CVCL_1051) and A498 (RRID:CVCL_A498) renal cell carcinoma, NCI-H211 (ATCC, cat. CRL-5824; RRID:CVCL_1529), NCI-H196 (ATCC, cat. CRL-5823, RRID:CVCL_1509), SW 1271 (ATCC, cat. CRL-2177, RRID:CVCL_1716) and NCI-H1876 (ATCC, cat. CRL-5902, RRID:CVCL_1503) small cell lung carcinomas, MDA-MB-231 (RRID:CVCL_0062) and MDA-MB-468 (RRID:CVCL_0419)breast carcinomas (10-12). Pooled donor human umbilical vein endothelial cells (HUVEC, Lonza, cat. CC-2519) and human mesenchymal stem cells (hMSC, Lonza, cat. PT-2501) were purchased from Lonza (Walkersville, MD).
Cell Culture. All cells were maintained in an incubator at 37 degrees C and 5% CO2 with 95% humidity. The PDC lines were cultured according to standard operating procedures established by the NCI PDMR (https://pdmr.cancer.gov). Briefly all PDCs were thawed and cultured in Matrigel-coated flasks prepared with a working solution of 1X Ham's F-12 nutrient mix, without supplementation (Invitrogen, Waltham, MA, cat. 11765054), 100 U/mL penicillin-streptomycin (Invitrogen, cat. 15140122), and 2.5% Matrigel (Corning Inc., Corning, NY, cat. 354248) for the first three passages. […]
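Also: seven day compound exposure before luminescent viability read.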
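For viability, T/C in this document: 100% = DMSO vehicle control wells.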

Structure (SMILES): CC[C@@]1(O)C(=O)OCc2c1cc1n(c2=O)Cc2cc3c(CN(C)C)c(O)ccc3nc2-1 + NC1CC1c1ccc(-c2cccc(O)c2)cc1
- IC50 (second compound 0.1 µM): 3.22 nM
- IC50 (second compound 0.316 µM): 2.16 nM
- IC50 (second compound 1 µM): 1.63 nM
- IC50 (second compound 3.16 µM): 2.15 nM
- IC50 (second compound 10 µM): 0.375 nM
- viability, T/C (second compound 0.1 µM, first compound 0.000316 µM): 81.3%
- viability, T/C (second compound 0.1 µM, first compound 0.001 µM): 78.9%
- viability, T/C (second compound 0.1 µM, first compound 0.00316 µM): 48.2%
- viability, T/C (second compound 0.1 µM, first compound 0.01 µM): 21.6%
- viability, T/C (second compound 0.1 µM, first compound 0.0316 µM): 8.58%
- viability, T/C (second compound 0.1 µM, first compound 0.1 µM): 3.36%
- viability, T/C (second compound 0.316 µM, first compound 0.000316 µM): 72.8%
- viability, T/C (second compound 0.316 µM, first compound 0.001 µM): 65.3%
- viability, T/C (second compound 0.316 µM, first compound 0.00316 µM): 41.9%
- viability, T/C (second compound 0.316 µM, first compound 0.01 µM): 21%
- viability, T/C (second compound 0.316 µM, first compound 0.0316 µM): 8.47%
- viability, T/C (second compound 0.316 µM, first compound 0.1 µM): 3.37%
- viability, T/C (second compound 1 µM, first compound 0.000316 µM): 61.8%
- viability, T/C (second compound 1 µM, first compound 0.001 µM): 56.7%
- viability, T/C (second compound 1 µM, first compound 0.00316 µM): 41.1%
- viability, T/C (second compound 1 µM, first compound 0.01 µM): 21.3%
- viability, T/C (second compound 1 µM, first compound 0.0316 µM): 8.54%
- viability, T/C (second compound 1 µM, first compound 0.1 µM): 4.7%
- viability, T/C (second compound 3.16 µM, first compound 0.000316 µM): 66.4%
- viability, T/C (second compound 3.16 µM, first compound 0.001 µM): 61.9%
- viability, T/C (second compound 3.16 µM, first compound 0.00316 µM): 44.2%
- viability, T/C (second compound 3.16 µM, first compound 0.01 µM): 17.8%
- viability, T/C (second compound 3.16 µM, first compound 0.0316 µM): 8.75%
- viability, T/C (second compound 3.16 µM, first compound 0.1 µM): 3.88%
- viability, T/C (second compound 10 µM, first compound 0.000316 µM): 50.7%
- viability, T/C (second compound 10 µM, first compound 0.001 µM): 46.7%
- viability, T/C (second compound 10 µM, first compound 0.00316 µM): 37.4%
- viability, T/C (second compound 10 µM, first compound 0.01 µM): 20.5%
- viability, T/C (second compound 10 µM, first compound 0.0316 µM): 9.34%
- viability, T/C (second compound 10 µM, first compound 0.1 µM): 4.4%

Structure (SMILES): COc1cc(C2c3cc4c(cc3C(OC3OC5COC(C)OC5C(O)C3O)C3COC(=O)C23)OCO4)cc(OC)c1O (stereo not given) + NC1CC1c1ccc(-c2cccc(O)c2)cc1
- IC50 (second compound 0.1 µM): 42.7 nM
- IC50 (second compound 0.316 µM): 21.3 nM
- IC50 (second compound 1 µM): 21.4 nM
- IC50 (second compound 3.16 µM): 13.7 nM
- IC50 (second compound 10 µM): < 9.49 nM
- viability, T/C (second compound 0.1 µM, first compound 0.00949 µM): 84.3%
- viability, T/C (second compound 0.1 µM, first compound 0.03 µM): 58.9%
- viability, T/C (second compound 0.1 µM, first compound 0.0949 µM): 30.1%
- viability, T/C (second compound 0.1 µM, first compound 0.3 µM): 19.4%
- viability, T/C (second compound 0.1 µM, first compound 0.949 µM): 7.22%
- viability, T/C (second compound 0.1 µM, first compound 3 µM): 4.45%
- viability, T/C (second compound 0.316 µM, first compound 0.00949 µM): 64.8%
- viability, T/C (second compound 0.316 µM, first compound 0.03 µM): 44.4%
- viability, T/C (second compound 0.316 µM, first compound 0.0949 µM): 25.7%
- viability, T/C (second compound 0.316 µM, first compound 0.3 µM): 18.6%
- viability, T/C (second compound 0.316 µM, first compound 0.949 µM): 8.04%
- viability, T/C (second compound 0.316 µM, first compound 3 µM): 5.02%
- viability, T/C (second compound 1 µM, first compound 0.00949 µM): 64.7%
- viability, T/C (second compound 1 µM, first compound 0.03 µM): 43.3%
- viability, T/C (second compound 1 µM, first compound 0.0949 µM): 27.4%
- viability, T/C (second compound 1 µM, first compound 0.3 µM): 16.4%
- viability, T/C (second compound 1 µM, first compound 0.949 µM): 5.52%
- viability, T/C (second compound 1 µM, first compound 3 µM): 4.94%
- viability, T/C (second compound 3.16 µM, first compound 0.00949 µM): 54.8%
- viability, T/C (second compound 3.16 µM, first compound 0.03 µM): 39.9%
- viability, T/C (second compound 3.16 µM, first compound 0.0949 µM): 24.3%
- viability, T/C (second compound 3.16 µM, first compound 0.3 µM): 15.2%
- viability, T/C (second compound 3.16 µM, first compound 0.949 µM): 7.27%
- viability, T/C (second compound 3.16 µM, first compound 3 µM): 3.74%
- viability, T/C (second compound 10 µM, first compound 0.00949 µM): 44.7%
- viability, T/C (second compound 10 µM, first compound 0.03 µM): 27.4%
- viability, T/C (second compound 10 µM, first compound 0.0949 µM): 23%
- viability, T/C (second compound 10 µM, first compound 0.3 µM): 17.1%
- viability, T/C (second compound 10 µM, first compound 0.949 µM): 6.98%
- viability, T/C (second compound 10 µM, first compound 3 µM): 5.53%
